What is called Dmax is the greatest extent of degradation seen. A word on the DC50: it is the concentration giving 50% degradation.

We go through four compounds from patent US20260092061A1, “COMPOUNDS FOR TARGETED PROTEIN DEGRADATION” (Amphista Therapeutics Limited, priority 2022, published 2026).

Assay [1] has as its target T1, BRD7 (Homo sapiens, UniProt Q9NPI1).
T1 construct: HiBiT-BRD7 KI HEK293 (LgBiT) Cells (Promega CS3023410); host or cells: HEK293 (LgBiT), HiBiT knock-in at the BRD7 locus
T1 sequence (Q9NPI1 1-651): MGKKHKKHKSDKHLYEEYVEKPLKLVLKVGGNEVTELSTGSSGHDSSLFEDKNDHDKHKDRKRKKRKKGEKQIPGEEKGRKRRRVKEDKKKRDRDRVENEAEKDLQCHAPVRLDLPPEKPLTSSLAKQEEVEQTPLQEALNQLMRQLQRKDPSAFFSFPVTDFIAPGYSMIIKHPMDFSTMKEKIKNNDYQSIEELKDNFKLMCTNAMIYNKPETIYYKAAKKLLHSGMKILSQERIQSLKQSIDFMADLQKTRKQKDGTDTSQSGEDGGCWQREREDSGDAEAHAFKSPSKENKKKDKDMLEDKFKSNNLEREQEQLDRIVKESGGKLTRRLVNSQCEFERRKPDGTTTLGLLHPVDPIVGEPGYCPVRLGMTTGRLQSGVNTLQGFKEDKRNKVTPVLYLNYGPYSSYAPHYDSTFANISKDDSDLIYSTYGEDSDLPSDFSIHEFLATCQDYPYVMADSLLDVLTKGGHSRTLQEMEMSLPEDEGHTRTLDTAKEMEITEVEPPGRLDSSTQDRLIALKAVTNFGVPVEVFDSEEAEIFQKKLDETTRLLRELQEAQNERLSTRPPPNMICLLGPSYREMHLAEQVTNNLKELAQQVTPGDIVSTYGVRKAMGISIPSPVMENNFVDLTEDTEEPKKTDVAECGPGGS
Nature of the assay: BRD7 degradation, HiBiT-BRD7 KI HEK293 (LgBiT) cells, NanoGlo Lytic Endpoint assay (Assay Protocol 1). Particulars: Table 5, assay protocol 1; for Dmax: HEK293. Type of assay: cell-based. As to the method: HiBiT-BRD9 KI HEK293 (LgBiT) Cells (Promega CS3023412) were seeded at 8000 cells per well (38 μL) in sterile white bottom 384 well plates (Invitrogen 164610 or Greiner 781080) and incubated overnight at 37° C. with 5% CO2. The next day, compounds were prepared at 1000× final concentration in DMSO and diluted 1:100 in media (DMEM PAN Biotech P04-03550+10% FBS ATCC 302025). […] The lytic buffer was equilibrated to room temperature for 10-15 min before lytic reagent was prepared by adding substrate (1:50) and LgBit protein (1:100) in lytic buffer. 40 μL lytic reagent mix was added to each well of the cel plate and plates were centrifuged briefly at ˜50g. Plates were incubated with shaking (350 RPM) for 12-24 min before reading using the LUM plus module of a BMG Pherastar FSX. Data was analysed using Dotmatics software and % BRD9 remaining was calculated by normalisation to average data from high and low control wells (DMSO treated cels and no cells respectively).
BRD7 degradation was determined in line with the procedure as outlined above for BRD9, with the exception that HiBiT-BRD7 KI HEK293 (LgBiT) Cells (Promega CS3023410) were seeded at 8000 cells per well (CPW) (36 uL) in sterile white bottom 384 well plates (Invitrogen 164610 or Greiner 781080) and incubated overnight at 37° C. with 5% CO2.

The target of assay [2] is T2, BRD9 (Homo sapiens, UniProt Q9H8M2).
T2 sequence (Q9H8M2 1-597): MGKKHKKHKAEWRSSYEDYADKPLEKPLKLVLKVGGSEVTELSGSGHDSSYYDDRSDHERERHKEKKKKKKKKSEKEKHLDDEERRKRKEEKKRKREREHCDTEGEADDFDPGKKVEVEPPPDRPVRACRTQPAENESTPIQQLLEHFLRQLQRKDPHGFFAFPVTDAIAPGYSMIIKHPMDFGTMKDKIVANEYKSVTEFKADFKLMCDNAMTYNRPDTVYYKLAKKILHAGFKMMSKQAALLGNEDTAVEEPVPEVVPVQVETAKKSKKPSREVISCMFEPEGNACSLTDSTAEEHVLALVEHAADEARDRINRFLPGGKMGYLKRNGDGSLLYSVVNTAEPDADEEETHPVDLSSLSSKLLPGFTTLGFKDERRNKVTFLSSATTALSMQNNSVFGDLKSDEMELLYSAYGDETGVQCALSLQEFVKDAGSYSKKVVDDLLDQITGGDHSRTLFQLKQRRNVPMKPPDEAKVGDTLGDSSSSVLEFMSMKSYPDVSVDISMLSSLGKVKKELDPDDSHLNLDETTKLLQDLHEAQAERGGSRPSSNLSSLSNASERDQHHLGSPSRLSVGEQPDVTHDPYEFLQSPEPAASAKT
Nature of the assay: Degradation of BRD9 (IF), immunofluorescence in MV4-11 cells, 24 hours (Assay Protocol 2). Type of assay: cell-based. More on the design: A suspension of MV4-11 cells (ATCC CRL-9591) was prepared; host or cells: MV4-11. The method in brief: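 MV4-11 cells treated with compound 24 h at 37° C., then fixed, permeabilised and immunostained for BRD9 (anti-BRD9 E4Q3F, Alexa 647 secondary, Hoechst counterstain). High-content imaging quantified nuclear BRD9 signal; % BRD9 remaining normalised to DMSO and 100 nM CFT-8634 controls.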

The mark [3] stands for this setting: MV4-11, Table 4, BRD9 degradation, determined according to Assay Protocol 2, read-out: Dmax^2.
Where [4] appears, read: MV4-11, Table 5, cells marked *: measured in accordance with Assay Protocol 2, read-out: BRD9 Dmax (%).
Setting [5] is: Table 4, BRD9 degradation, determined according to Assay Protocol 2, read-out: DC50^2.
Setting [6] is: Table 5, cells marked *: measured in accordance with Assay Protocol 2, read-out: BRD9 DC50.

Like-named read-outs stand apart in the source and are kept apart here.

As to `COc1cc(-c2cn(C)c(=O)c(C)c2C)cc(OC)c1CN1CCCN(C(=O)/C(C#N)=C/C(C)(C)C)CC1` [BRD9c, (E/Z)-2-(4-(2,6-dimethoxy-4-(1,4,5-trimethyl-6-oxo-1,6-dihydropyridin-3-yl)benzyl)-1,4-diazepane-1-carbonyl)-4,4-dimethylpent-2-enenitrile], the Dmax in assay [1] was less than 25%; in assay [2] (setting [3]) it was greater than 70%; in assay [2] (setting [4]) it was greater than 75%. Besides, the figures for the DC50 in assay [1], in assay [2] (setting [5]) and in assay [2] (setting [6]) were greater than 1 µM, less than 0.025 µM and less than 0.00125 µM, respectively.

For `COc1cc(-c2cn(C)c(=O)c(C)c2C)cc(OC)c1CN(C)C1CCN(C(=O)/C(C#N)=C/C(C)(C)C)CC1` [BRD9d, (E/Z)-2-(4-((2,6-dimethoxy-4-(1,4,5-trimethyl-6-oxo-1,6-dihydropyridin-3-yl)benzyl)(methyl)amino)piperidine-1-carbonyl)-4,4-dimethylpent-2-enenitrile], the Dmax in assay [1] was less than 25%; in assay [2] (setting [3]) it was 50 to 70%. Moreover, the figures for the DC50 in assay [1] and in assay [2] (setting [5]) were greater than 1 µM and greater than 0.2 µM, respectively.

`COc1cc(-c2cn(C)c(=O)c(C)c2C)cc(OC)c1CN1CCN(C(=O)/C(C#N)=C/C(C)(C)C)C2(CC2)C1` [BRD9e, (E/Z)-2-(7-(2,6-dimethoxy-4-(1,4,5-trimethyl-6-oxo-1,6-dihydropyridin-3-yl)benzyl)-4,7-diazaspiro[2,5]octane-4-carbonyl)-4,4-dimethylpent-2-enenitrile]: the Dmax in assay [1] is less than 25%; in assay [2] (setting [3]), 30 to 50%; in assay [2] (setting [4]), 25 to 40%. The DC50 in assay [1] and in assay [2] (setting [6]) was greater than 1 µM in each case.

`COc1cc(-c2cn(C)c(=O)c(C)c2C)cc(OC)c1CN1CCN(C(=O)/C(C#N)=C/c2cccc(Br)n2)CC1` [BRD9h, (E/Z)-3-(6-bromopyridin-2-yl)-2-(4-(2,6-dimethoxy-4-(1,4,5-trimethyl-6-oxo-1,6-dihydropyridin-3-yl)benzyl)piperazine-1-carbonyl)acrylonitrile]: the Dmax is 25 to 40% in assay [1] and greater than 70% in assay [2] (setting [3]). Further, the values for the DC50 in assay [1] and in assay [2] (setting [5]) were greater than 1 µM and less than 0.025 µM, respectively.
